Data set [1] has as its system A549 (human lung carcinoma) cell line. In words: Cell viability (MTT) of ABTL0812 in combination with docetaxel in lung cancer. Type of data set: cell-based. Conditions: A549, three days, FBS 0.5%, single agent. The method, then: Methods: A549 cells were incubated with increasing concentrations of ABTL0812 (3-300 μM), docetaxel (0.01-100 μM), or a combination of both (subIC50, i.e., 20 μM fixed concentration of ABTL812 and 0.01-100 μM docetaxel) for three days (FBS 0.5%). […] In the denominator, (Dx)1 is for D1“alone” that inhibits a system x %, and (Dx)2 is for D2“alone” that inhibits a system x %.

The test system of data set [2] is human endometrial cancer patient derived xenograft. Description: Patient-derived xenograft (PDX) endometrial model, paclitaxel and carboplatin.
Description: After tumors grew up to 100 mm^3, tumors were extracted from mice, minced in 2 mm long pieces and re-implanted in one flank of 40 mice. When average tumor volume reached 100 mm^3, mice were randomly distributed into treatment groups, and dosed as follows: vehicle (n=11); ABTL0812: 120 mg/kg orally, 5 times per week (n=10); paclitaxel/carboplatin (P/C): P:50 mg/kg/C:15 mg/kg intraperitoneal (n=12); and ABTL0812+P/C: ABTL0812 (n=10) was administered always two days prior to the first P/C administration and two days after, maintaining 4 doses of ABTL0812 and one of P/C per week; doses were the same as when given separately.
The effectiveness of the therapy was measured by the impact of the treatment on the tumor growth, which was measured by its volume. The health state of the animals and the drug-induced toxicity were determined by the animal body weight during the study. Tumor size evolution and tumor weight were evaluated by two-way ANOVA (day by day analysis).
In order to simulate the Phase II clinical trial design, where ABTL0812 will be administered chronically after P/C cycles, P/C treatment was removed from P/C and ABTL0812+P/C groups, maintaining ABTL0812 chronically. Tumor volume was measure after P/C treatment removal during an extra 17 days.
For the next data set, the system named is H1957 cells. Description: Cell viability (MTT) of ABTL0812 in combination with paclitaxel, H1957. Type of data set: cell-based, human. Conditions: H1957, 48 hours, 0.1% FBS, single agent. As to the method: (§1) Methods: A549 cells were incubated with increasing concentrations of ABTL0812 (3-300 μM), paclitaxel (0.003-1 μM), or a combination of both using subIC50 fixed concentration of ABTL0812 and 0.003-1 μM paclitaxel for 72 hours in DMEM with 0.1% FBS. H157, H1957 and HTB-812 cells were incubated with increasing concentrations of paclitaxel (0.001-10 μM) alone and in combination with subIC50 fixed concentration of ABTL0812 for 48 hours in DMEM with 0.1% FBS. Cell viability was evaluated in all cases by MTT assay and IC50's were calculated for paclitaxel and the combination. The concentrations of the combinations for the different cell lines were:
(§2) Finally, the Combination Index (CI), as described in the previous section, was calculated for the values of paclitaxel IC50.

Data set [3] is classed as in vivo. The method, then:
Methods: Forty-five female CD-1 mice were distributed by means of the body weight stratification method into nine experimental groups (A-I) (5 animals for group) that differed in the treatment or in the day on which the reference items (paclitaxel and carboplatin) were administered.
The table below summarizes the treatment groups. Please note that the same administration schedule and doses were administered as in the previous efficacy studies.
The safety assessment relied on observed mortality, local and systemic clinical signs, body weight and food consumption recorded throughout the whole study. In addition, clinical pathology determinations (biochemistry and hematology) were performed before sacrifice in all animals. At the end of the observation period (one day after the last administration), all surviving animals were sacrificed and subjected to a gross necropsy. Moreover, the safety assessment was also based on the weight of selected target organs collected at sacrifice.

Data set [4] relates to A549 (human lung carcinoma) cell line with mutated KRAS. In words: Cell viability (MTT) of ABTL0812 in combination with paclitaxel, A549. Type of data set: cell-based. Conditions: A549, 72 hours, 0.1% FBS, single agent. As to the method: as §1, §2
The subject of data set [5] is H157 human squamous lung cancer xenograft. Type of data set: in vivo. The conditions noted are these: day 20 after beginning of treatments; ABTL0812 120 mg/kg oral; end-point tumor volume >1000 mm^3 or welfare. The method, then:
Objective: Investigate survival rate for ABTL0812 alone and in combination with paclitaxel and carboplatin (P/C) with a Kaplan-Meier analysis in a human squamous NSCLC xenograft model Methods: Mice were injected with 5×10^6 H157 cells in one flank to induce tumor formation. […] The different conditions studied were vehicle, 120 mg/kg oral ABTL0812 daily, 15 mg/kg carboplatin+50 mg/kg paclitaxel by i.p. route and an additional group receiving the combination of these two regimens. […] Tumor volume was monitored 3 times a week.

Data set [6] relates to A549 human lung adenocarcinoma xenograft. Type of data set: in vivo. The conditions noted are these: ABTL0812 30 mg/kg/day oral 5 times a week; docetaxel 5 mg/kg i.p. once a week. The method, then:
Methods: Mice were injected with 5×10^6 A549 cells in each flank to induce tumor formation. […] ABTL0812 was administered by the oral route at 30 mg/kg/day, 5 times a week. Docetaxel 5 mg/kg was administered intra-peritoneally once a week (Coxon et al. 2012). Tumor volume and body weight were monitorized 3 times a week.

Data set [7] has as its system MiaPaca2 human pancreatic cancer xenograft. Type of data set: in vivo. Conditions: ABTL0812 120 mg/kg oral; P/Gm 15 mg/kg and 60 mg/kg two times per week; 4 weeks. As to the method:
Methods: Athymic female nude mice (n=9 per group) were injected via subcutaneous route with 0.1 ml of MiaPaca2 cells (5×10^6 cell/ml in serum free DMEM media in 1:1 with matrigel) in one flank. Tumor Volumes (TV) were measured as length×width^2×½ three times a week.

The test system is the same in data set [8]. In words: Human pancreatic xenograft (MiaPaca-2), gemcitabine and Nab-paclitaxel/gemcitabine. Type of data set: in vivo, Athymic Nude-Foxn1nu female mice. The conditions noted are these: ABTL0812 120 mg/kg oral 5 times a week; gemcitabine 60 mg/kg, Nab-Paclitaxel 5 mg/kg i.p. 2 times a week (suboptimal chemotherapy dose). The method, then:
It is important to change the site of injection to avoid intestinal necrosis and keep Nab-Paclitaxel and gemcitabine injections as far as possible one from the other in mice abdomen. • Gemcitabine+ABTL0812 (n=10): treated orally with 120 mg/kg of ABTL0812 in 200 μl of distilled water+5% glycerol, 5 times a week and with 60 mg/kg of gemcitabine administered i.p in 100 μl of sterile water, 2 times a week. ABTL0812 was always administered before chemotherapy with the aim of reducing the stress derived from the i.p. injection, that is normally applied as the last administration. • Gemcitabine+Nab-Paclitaxel+ABTL0812 (n=8): treated orally with 120 mg/kg of ABTL0812 in 200 μl of distilled water+5% glycerol, 5 times a week, with 60 mg/kg of gemcitabine administered i.p. in 100 μl of sterile water, 2 times a week and with 5 mg/kg of Nab-Paclitaxel administered i.p. in 230 μl of 0.9% NaCl solution 2 times a week. As in the gemcitabine+Nab-Paclitaxel group, injections where administered in separated areas of the abdomen. […]
Treatment efficacy was assessed by measuring tumor volume three days a week. Additionally, total body weight was monitored three days a week to test the toxicity associated with the treatments in addition to visual examination of signs indicative of clinicopathological symptoms. […]

The test system of the next data set is H157 cells. In words: Cell viability (MTT) of ABTL0812 in combination with paclitaxel, H157. Conditions: H157, 48 hours, 0.1% FBS, single agent. Type of data set: cell-based, human. The method, then:
as §1, §2

“Also recorded” adds a separate entry of the source. Like-named read-outs stand apart in the source and are kept apart here.

Data on one molecule can be found in patent US11260042B2, “Pharmaceutical combination for the treatment of cancer” (ABILITY PHARMACEUTICALS S.L., priority 2017, dated 2022).

As to `CCCCC/C=C\C/C=C\CCCCCCC(O)C(=O)O` (stereo not shown) [ABTL0812, COOH—CHOH—(CH2)6—(CH═CH—CH2)2—(CH2)3—CH3], the IC50 in [1] came to 42 µM. Also, in data set [2] (after day 47, P/C stopped, ABTL0812 maintained chronically, extra 17 days), the “tumor growth after P/C removal” value is “tumor growth inhibition very similar to P/C”. Also, in data set [2] (first 47 days, ABTL0812 120 mg/kg orally, P 50 mg/kg / C 15 mg/kg i.p.), the “tumor growth (volume)” value was “same efficacy as P/C”. Moreover, the “total body weight, toxicity” value in [2] (mouse, in vivo) is reported as “without any signs of relevant toxicity; also recorded: Body weight reduction was observed partially only in ABTL0812 group at day 15”. Moreover, the IC50 with H1957 cells came out at 43 µM. For the same molecule, in data set [3] (mouse, in vivo), the “Biochemistry Creat” value amounted to 9.18 µmol/L, the “Biochemistry Triglyc” value came out at 0.94 mmol/L, the “Biochemistry Urea” value is recorded as 3.66 mmol/L and the “Body Weight Gain D 8-11” value was determined as 0.138 g. Further, in [3] (mouse, in vivo), the “Hematology PLT” value is listed as 1293 ×10^3/μL, the “Hematology RBC” value is reported as 9.57 ×10^6/μL and the “Hematology WBC” value was 5.94 ×10^3/μL. Further, the mortality and tolerability result in data set [3] (two-week administration) is “did not cause mortality and was well tolerated”. Also, the IC50 in [4] turned out to be 49 µM. Besides, in data set [5], the “survival (Kaplan-Meier)” value was found to be 0%. Moreover, the tumor volume result in data set [6] was “significantly reduced tumor volume when compared to control animals”. For the same molecule, the tumor volume result in [7] is on record as “positive effect within the first 15 days after treatment, showing similar tumor volume to vehicle group in the following days”. Further, the tumor volume result in [8] was “better response in tumor volume evolution than Gem+Nab-Pac group during the first 20 days of treatment; also recorded: better response in tumor volume evolution than Gem group during the whole study”. The IC50 in the data set on H157 cells was determined as 23 µM.
